Measurements from patent US20070129411A1, “Treatment of proliferative diseases with epothilone derivatives and radiation” (priority 2003, published 2007).
Entries after “also recorded” stand apart in the source; their conditions may differ.

How the values were obtained:
[1] = tested on: human colon adenocarcinoma cell line SW480; test: alamarBlue tumor cell proliferation assay, SW480; assay type: cell-based
Procedure: (§1) Tumor cell proliferation was assessed by the calorimetric MTT-like alamarBlue assay that is based on detection of metabolite activity. To determine clonogenic survival the number of singular cells plated was adjusted to obtain about 100 colonies per dish with a given treatment. After 24 h exposure to the different drugs cells were irradiated and then allowed to grow for 8 to 10 days before fixation In methanol/acetic acid (75%/25%) and staining with crystal violet. Only colonies with more than 50 cells/colony were counted. The plating efficiency (PE) of untreated cells was determined and calculated as PE (%)=(scored colonies/number of plated cells)×100. The surviving fraction (SF) with a given treatment was determined by SF=(scored colonies)/(number of plated cells×PE/100). […] Irradiation of cell cultures was carried out at RT in tissue culture dishes (100×100 mm) or in 96-well plates using a Pantak Therapax […] X-ray unit at 0.7 Gy/min. Dosimetry was controlled with a Vigilant-dosimeter.
(§2) Initial proliferation assays were performed to determine the dose range of epothilone B to be applied for combined treatment with ionizing radiation. […] For this combined treatment modality cells were pretreated for 24 h with epothilone B prior to irradiation.

[2] = tested on: E1A/ras transformed p53-/- MEF; assay type: cell-based, murine; conditions: for proliferative activity, drug alone / proliferative activity, drug in combination with ionizing radiation: murine fibrosarcoma cell line, low nanomolar range, comparable extent for both drugs
Procedure: as §1, §2

SW480 = test: clonogenic survival assay, SW480; assay type: cell-based, human
Procedure: (§3) Tumor cell proliferation was assessed by the calorimetric MTT-like alamarBlue assay that is based on detection of metabolite activity. To determine clonogenic survival the number of singular cells plated was adjusted to obtain about 100 colonies per dish with a given treatment. After 24 h exposure to the different drugs cells were irradiated and then allowed to grow for 8 to 10 days before fixation In methanol/acetic acid (75%/25%) and staining with crystal violet. Only colonies with more than 50 cells/colony were counted. The plating efficiency (PE) of untreated cells was determined and calculated as PE (%)=(scored colonies/number of plated cells)×100. The surviving fraction (SF) with a given treatment was determined by SF=(scored colonies)/(number of plated cells×PE/100). Clonogenic assays were performed at least twice and absence of error bars is due to minimal standard deviations. Irradiation of cell cultures was carried out at RT in tissue culture dishes (100×100 mm) or in 96-well plates using a Pantak Therapax […] X-ray unit at 0.7 Gy/min. Dosimetry was controlled with a Vigilant-dosimeter.
(§4) The clonogenic assay is based on the outgrowth of compact clones from singular cells that are seeded at low density in a petri dish. Clonal outgrowth under the different treatment conditions can be quantified and compared.

E1A/ras-transformed MEFs = test: clonogenic survival assay, E1A/ras-transformed MEF; assay type: cell-based, murine; conditions: 24 h drug exposure then irradiation
Procedure: as §3, §4

SMILES | proliferation, response to drug ([1]; SW480, doses up to 500 nM) | proliferative activity, drug alone [2] | proliferative activity, drug in combination with ionizing radiation [2] | clonogenic survival, combined treatment with ionizing radiation (SW480; Paclitaxel-resistant SW480, only at very high concentrations of Paclitaxel) | clonogenic survival, combined treatment with ionizing radiation (E1A/ras-transformed MEFs) | antiproliferative effect of combined treatment with ionizing radiation ([1]; SW480, ionizing radiation 5Gy, 24 h drug pretreatment prior to irradiation) | antiproliferative dose response, drug alone ([1]; SW480, over 72 hours, without irradiation) | antiproliferative effect of combined treatment with ionizing radiation ([2]; E1A/ras transformed p53-/- MEF, ionizing radiation 5Gy, 24 h drug pretreatment prior to irradiation) | antiproliferative dose response, drug alone ([2]; E1A/ras transformed p53-/- MEF, over 72 hours, without irradiation) | clonogenic survival, combined treatment with ionizing radiation (SW480; SW480, 24 h drug exposure then irradiation) | clonogenic survival, sensitivity of SW480 relative to MEFs (SW480; SW480 compared with E1A/ras-transformed MEFs)
CC(=O)O[C@H]1C(=O)[C@@]2(C)[C@H]([C@H](OC(=O)c3ccccc3)[C@]3(O)C[C@H](OC(=O)[C@H](O)[C@@H](NC(=O)c4ccccc4)c4ccccc4)C(C)=C1C3(C)C)[C@]1(OC(C)=O)CO[C@@H]1C[C@@H]2O [Paclitaxel, reference compound] | refractory | reduced the proliferative activity | reduced the proliferative activity | at least additive effect | at least additive effect |  |  |  |  |  | 
C/C(=C\c1csc(C)n1)[C@@H]1C[C@@H]2O[C@]2(C)CCC[C@H](C)[C@H](O)[C@@H](C)C(=O)C(C)(C)[C@@H](O)CC(=O)O1 [epothilone B] |  | reduced the proliferative activity | reduced the proliferative activity |  | at least additive effect | at least additive antiproliferative effect; also recorded: retains full activity | subnanomolar and low nanomolar range; also recorded: enhanced sensitivity; also recorded: retains full activity | at least additive antiproliferative effect | subnanomolar and low nanomolar range | at least additive effect | more sensitive
